# pIC50: −log10 of the molar value. Active and inactive are the calls of the source.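 Rule for the calls: active = mean IC50 below a set limit; inactive = the rest.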
# Target: Alkaline phosphatase, placental type (Homo sapiens) (UniProt P05187)
# Test: PLAP enzyme inhibitors, dose response, selectivity assay for human IAP inhibitor project, biochemical, uHTS hits, luminescence (AID 488892)
# Details: purified PLAP, CDP-Star luminescence, 30 min
Compound,pIC50,IC50
CC[n+]1c(/C=C/c2c[nH]c3ccccc23)ccc2cc(C)ccc21,4.97,–
CNc1nnc(-c2cc3ccccc3oc2=O)s1,5.39,–
CCN1/C(=C\c2ccc3ccccc3[n+]2CC)Sc2cc(C)ccc21,4.55,–
CCOc1cc(/C=C2/C(=O)ON=C2C)cc(Br)c1O,4.45,–
c1ccc(CSCCc2ccncc2)cc1,4.52,–
CCN(CC)c1ccc(N=Nc2nn(C)c(C)c2[N+](=O)[O-])cc1,4.31,–
O=C1C2C3C=CC(C3)C2C(=O)N1c1n[nH]c(-c2cccnc2)n1 (stereo not drawn),–,> 100 µM (inactive)
C=CCN1C(=O)/C(=C\C=C2\N(C)c3ccccc3C2(C)C)SC1=S,4.97,–
CN(C)c1ccc(N=Nc2ccccc2Br)cc1,4.55,–
C/C(=N/Nc1ccccc1[N+](=O)[O-])c1ccc([N+](=O)[O-])cc1,–,> 100 µM (inactive)
O=C(/C=C/c1ccccc1O)c1ccco1,4.12,–
COc1ccc2nc3cc(Cl)ccc3c(Nc3cc(CN4CCCC4)c(O)c(CN4CCCC4)c3)c2n1,4.94,–
CC1=NN(Cc2ccccc2)C(=O)/C1=C\c1ccc(N(C)C)cc1,4.42,–

# More lines, now with the values ahead:
pIC50,IC50,Compound
5.25,–,N#C/C(=C\c1ccc(O)c(O)c1)C(=O)c1ccc(O)c(O)c1
4.83,–,COc1ccc(C=C2C(=O)c3ccccc3C2=O)cc1O
4.35,–,CC(C)=CCc1c(O)ccc2c1OC(c1ccc(O)c(O)c1)CC2=O (stereo not drawn)
4.52,–,Nc1ccc(-c2c3ccc(=O)cc-3oc3cc(O)ccc23)cc1C(=O)O
4.81,–,COc1cc(/C=C(\C#N)C(=O)c2ccc(O)c(O)c2)cc(I)c1O
4.55,–,O=C(NN1C(=O)/C(=C/c2ccc(O)c([N+](=O)[O-])c2)SC1=S)c1ccccc1Cl
4.52,–,CN(C)c1ccc2nc3c(=O)[nH]c(=O)nc-3n(CC(O)C(O)C(O)CO)c2c1 (stereo not drawn)
5.57,–,O=c1c2cc(O)c(O)cc2oc2cc(O)c(C3OC(CO)C(O)C(O)C3O)c(O)c12 (stereo not drawn)
4.74,–,Oc1ccc(N=Nc2c(O)ccc3ccccc23)cc1
5.06,–,O=C1Nc2ccccc2/C1=N\N=C\c1ccc(O)c(O)c1
